The structures appear in SMILES notation. A value given as a limit tells only on which side of the number the result lay.

What all share (assay): relative IC50 (inflection point of fitted viability curve, relative to fitted max inhibition); higher = less sensitive
Details in all cases: 72 h

The subject of assay [1] is KHYG-1 (IL-2 2.5 ng/mL). The procedure: (§1)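 Drug sensitivity and resistance testing: 5 concentrations over a 10,000-fold range, 72 h at 37 °C, viability by CellTiter-Glo normalised to DMSO and benzethonium chloride controls. IC50 is the inflection point of a logistic fit (min fixed at 0, max fitted), so it is relative to the fitted maximal inhibition. Kept only where fitted max inhibition is at least 50%.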

For assay [2], the system named is NK-92 (IL-2 2.5 ng/mL). The procedure: as §1
Assay [3] relates to NKL (IL-2 2.5 ng/mL). The method, then:
as §1

Assay [4] deals with SNK-6 (IL-2 2.5 ng/mL). The method, then:
as §1

For assay [5], the system named is YT (IL-2 2.5 ng/mL). The procedure: as §1
The subject of assay [6] is DERL-7 (IL-2 2.5 ng/mL). The method, then: as §1
Assay [7] has as its system IMC-1 (IL-2 20 ng/mL). The method, then:
as §1

The test system of assay [8] is NK-YS (IL-2 2.5 ng/mL). The method, then:
as §1

Assay [9] relates to KAI3 (IL-2 2.5 ng/mL). The method, then: as §1

With `Cc1cc(C(=O)NOCCO)c(Nc2ccc(I)cc2F)n(C)c1=O` [AZD-8330], the “relative IC50” value was 13 nM in [1], more than 10000 nM in assay [2], 10.2 nM in assay [3] and more than 10000 nM in [4].
On to `CN(C)c1nc(N(C)C)nc(N(C)C)n1` [Altretamine], for which the “relative IC50” value in assay [1], in assay [2] and in [5] was more than 10000 nM in each case.
`N#CC(c1ccnc(OCc2ccc(CN3CCOCC3)cc2)n1)c1nc2ccccc2s1` (stereo not drawn) [Bentamapimod]: the “relative IC50” value amounted to 1440 nM in assay [6]; 2230 nM in [7]; 1690 nM in assay [1]; 1810 nM in assay [3]; 1590 nM in [5].
Take `O=C(c1ccc(F)c(F)c1Nc1ccc(I)cc1F)N1CC(O)([C@@H]2CCCCN2)C1` [Cobimetinib]: the “relative IC50” value is 123 nM in assay [1], 51.6 nM in assay [3] and more than 1000 nM in assay [4].
For `CCCOc1ccn2c(C(C)=O)cc(-c3ccccc3S(C)(=O)=O)c2c1` [GSK2801], the “relative IC50” value in assay [7] is more than 10000 nM.
Take `O=S(=O)(c1cccc2c(O)nccc12)N1CCCNCC1` [Hydroxyfasudil]: the “relative IC50” value in assay [4] was found to be 9460 nM.
Consider `C#Cc1cccc(Nc2ncnc3cc4c(cc23)OCCOCCOCCO4)c1` [Icotinib], for which the “relative IC50” value in assay [2] came out at 1970 nM.
In the case of `CS(=O)(=O)CCNCc1ccc(-c2ccc3ncnc(Nc4ccc(OCc5cccc(F)c5)c(Cl)c4)c3c2)o1` [Lapatinib], in [4], the “relative IC50” value was more than 1000 nM.
For the compound `CNC(=O)c1cccc2cc(Oc3ccnc4cc(OCC5(N)CC5)c(OC)cc34)ccc12` [Lucitanib], the “relative IC50” value in assay [1] was determined as 2000 nM; in [2], 1910 nM; in [8], 2000 nM; in assay [4] it was 3720 nM; in [5] it was 3440 nM.
For the compound `CCN1CCN(Cc2ccc(-c3cc4c(N[C@H](C)c5ccccc5)ncnc4[nH]3)cc2)CC1` [NVP-AEE788], the “relative IC50” value in [2] was found to be 374 nM.
Consider `CCN1CCN(c2ccc(Nc3cc(N(C)C(=O)Nc4c(Cl)c(OC)cc(OC)c4Cl)ncn3)cc2)CC1` [NVP-BGJ398], for which, in assay [4], the “relative IC50” value is more than 1000 nM.
For the compound `COc1ncc(-c2ccc3nccc(-c4ccnnc4)c3c2)cc1NS(=O)(=O)c1ccc(F)cc1F` [Omipalisib], the “relative IC50” value is 11.1 nM in [6]; 11.4 nM in assay [9]; 114 nM in assay [1]; 11.2 nM in [2]; 39.5 nM in assay [8]; 57.5 nM in [3]. The “relative IC50” value was found to be 101 nM in assay [4] and 29 nM in assay [5].
For `OC[C@H]1O[C@@H](n2cnc3c2N=CNC[C@H]3O)C[C@@H]1O` [Pentostatin], the “relative IC50” value in [9] and in assay [3] was more than 10000 nM each time.
As for `COc1cc(F)c(F)c(Nc2ccc(I)cc2F)c1NS(=O)(=O)C1(C[C@H](O)CO)CC1` [Refametinib], the “relative IC50” value turned out to be 194 nM in assay [6], 147 nM in assay [1] and 91.9 nM in [3].
For `O=C(Nc1cccc(Cl)c1)Nc1ncc(CCNc2ncnc3ccsc23)s1` [SNS-314], the “relative IC50” value worked out at 28.1 nM in assay [6]; 201 nM in [7]; 12.4 nM in assay [1]; 61.3 nM in assay [2]; 37.9 nM in assay [8]; 10.5 nM in assay [4].
On to `Cn1cnc2c(F)c(Nc3ccc(Br)cc3Cl)c(C(=O)NOCCO)cc21` [Selumetinib], for which the “relative IC50” value in [6] is 136 nM; in assay [1], 606 nM; in assay [3] it was 436 nM; in assay [4] it was more than 10000 nM.
On to `CCc1nc(-c2cccc(C)c2)c(-c2ccnc(NC(=O)c3ccccc3)c2)s1` [TAK-715], for which the “relative IC50” value in assay [2] was determined as 2170 nM; in [8], 1570 nM; in assay [4], 3250 nM.
Consider `Cn1c(=O)c(F)c(Nc2ccc(I)cc2F)c2c(=O)n(C[C@@H](O)CO)cnc21` [TAK-733], for which the figures for the “relative IC50” value in [1] and in assay [3] were 22.5 nM and 12.6 nM, respectively.
`CO[C@H]1C[C@@H]2CC[C@@H](C)[C@@](O)(O2)C(=O)C(=O)N2CCCC[C@H]2C(=O)O[C@H]([C@H](C)C[C@@H]2CC[C@@H](OC(=O)C(C)(CO)CO)[C@H](OC)C2)CC(=O)[C@H](C)/C=C(\C)[C@@H](O)[C@@H](OC)C(=O)[C@H](C)C[C@H](C)/C=C/C=C/C=C/1C` [Temsirolimus]: the “relative IC50” value is 0.57 nM in assay [6]; 0.5 nM in [9]; 1.32 nM in assay [1]; 0.31 nM in assay [8]; 0.09 nM in assay [3]; 0.26 nM in assay [4]. Further, in assay [5], the “relative IC50” value turned out to be 0.61 nM.
Take `S=P(N1CC1)(N1CC1)N1CC1` [Thio-TEPA]: the “relative IC50” value in [9] amounted to 4010 nM; in [3] it was 4100 nM.

Source of the values: the supplement of paper PMC5908809.
